Experimental data reported in patent US9351983B2, “Use of glycerophosphoinositols for the treatment of septic shock” (CONSIGLIO NAZIONALE DELLE RICERCHE, priority 2012, dated 2016).

Legend:
Format in all cases: cell-based, human
[1] = system: LPS-induced degradation of I-κBα; assay: Western blotting of I-κBα in LPS-stimulated monocytes; settings: 300 μM, 0.1 μg/ml LPS for 1 h
Method: Monocytes were incubated at 37° C. for 20 min without or with 300 μM GroPIns or GroPIns4P, and for a further 1 h in the absence and presence of 0.1 μg/ml LPS. After stimulation, the cells were lysed and expression levels of I-κBα were analysed. Proteins were resolved using 10% SDS-PAGE and were probed by Western blotting, using a polyclonal anti-I-κBα antibody. The data are representative of four experiments performed with monocytes isolated from peripheral blood of different donors.
(§1) Protein extracts were analysed by Western blotting by the following procedures. The nitrocellulose filters containing the proteins of interest were incubated in the blocking solution for Western blotting plus 3% bovine serum albumin (BSA) or 5% milk powder (Fluka, Switzerland) for 1 h at room temperature, and then with the primary antibody diluted to its working concentration (see Table 2) in the blocking solution for Western blotting (plus BSA or milk powder). After a 2-4 h incubation at room temperature, or an overnight (O/N) incubation at 4° C., the antibody was removed and the strips were washed twice in Tween®/Tris-buffered salt solution (TTBS), for 15 min each. […] After washing the strips were incubated with the enhanced luminescence (ECL) reagents (Amersham Pharmacia Biotech, NJ, USA), according to the manufacturer instructions, and protein signals were detect by autoradiography using Kodak film.

[2] = system: LPS-mediated gene transcription of COX-2; assay: Real-time RT-PCR of COX-2 mRNA in LPS-stimulated monocytes; settings: 300 μM, 0.1 μg/ml LPS for 1.5 h or 24 h
Method: FIG. 4—The glycerophosphoinositols inhibit LPS-mediated gene transcription of TNFα, IL-1β and COX-2. Human monocytes were purified from peripheral blood and incubated at 37° C. for 20 min without or with 300 μM GroPIns or GroPIns4P, and for an additional 1.5 h or 24 h in the absence and presence of 0.1 μg/ml LPS from E. coli. At each time point, RNA was extracted and converted to cDNA for real-time PCR analysis of TNFα, IL-1β and COX-2. Each sample was measured in triplicate and the data were calculated using the delta-delta method (2-DDCT). Transcription of the house-keeping gene GAPDH was used to normalise the data. Measurements of mRNA levels were expressed as fold-increase over the respective control (unstimulated) cells, and are means (±SD) of triplicates from one representative experiment of 4 experiments performed with cells from different donors. Asterisks indicate statistically significant differences (*p<0.0485; **p<0.0092).
One μg total RNA (extracted through thiocyanate/caesium chloride method) was converted to cDNA using Moloney murine leukaemia virus reverse transcriptase (Applied Biosystems, Italy). […] Each sample was measured in triplicate and the data were analysed with the SDS 2.0 software (Applied Biosystems, Italy) by the delta-delta method (2-DDCT) for comparing relative expression results. […]

p38 = assay: Western blotting of phosphorylated p38 in LPS-stimulated monocytes; settings: 300 μM, 0.1 μg/ml LPS for 1 h
Method: (§2) Monocytes from healthy donors were incubated at 37° C. for 20 min without or with 300 μM GroPIns or GroPIns4P, and for an additional 1 h in the absence and presence of 0.1 μg/ml LPS from E. coli. Resentative Western blots are shown, as resolved using 10% SDS-PAGE, showing phosphorylated (p-) and total levels of p38 and ERK1/2. All of the blots were representative of at least three independent experiments.
as §1

ERK1/2 = assay: Western blotting of phosphorylated ERK1/2 in LPS-stimulated monocytes; settings: 300 μM, 0.1 μg/ml LPS for 1 h
Method: as §2, §1

IL-1β = assay: ELISA of IL-1β in medium of LPS-stimulated monocytes; settings: 300 μM
Method: (§3) FIG. 5—The inhibitory effects of GroPIns are also evident at the protein expression level. Purified monocytes (4×10^3 cells/sample) were pre-incubated for 20 min at 37° C. in the absence and presence of 300 μM GroPIns, and then for a further 5 h and 24 h without or with 0.1 μg/ml LPS from E. coli. At the end of this incubation, the levels of TNFα, IL-1β and TxB-2 in the medium were assessed by ELISA. In monocytes alone, the protein concentrations were under the assay detection limits at both the times. The data are representative of three independent experiments performed with cells from different donors. Exposure of monocytes to LPS induced a time-dependent increase in the […] levels of all of the cytokines analysed.
(§4) Cellular levels of TNFα, IL-1β and TxB-2 were quantified by enzyme-linked immunosorbent assay (ELISA). Conditioned medium from monocytes was sedimented by centrifugation at 300×g at room temperature for 10 min to eliminate cellular debris. Then, the supernatant was recovered and the concentrations of TNFα, IL-1β and TxB-2 were assessed by ELISA, as specified by the manufacturers (Amersham Pharmacia Biotech (NJ, USA).

TNFα = assay: ELISA of TNFα in medium of LPS-stimulated monocytes; settings: 300 μM
Method: as §3, §4

Compound | effect on LPS-induced degradation of I-κBα [1] | effect on LPS-induced COX-2 mRNA expression [2] | phosphorylation level of p38 (p38) | phosphorylation level of ERK1/2 (ERK1/2) | level of IL-1β in the medium (IL-1β; 0.1 μg/ml LPS for 5 h) | level of IL-1β in the medium (IL-1β; 0.1 μg/ml LPS for 24 h) | level of TNFα in the medium (TNFα; 0.1 μg/ml LPS for 5 h) | level of TNFα in the medium (TNFα; 0.1 μg/ml LPS for 24 h)
O=P(O)(O)OC1[C@@H](O)[C@H](O)C(OP(=O)(O)OCC(O)CO)[C@@H](O)[C@H]1O (stereo partly drawn) [GroPIns4P, glycerophosphoinositol 4-phosphate] | did not affect this LPS activity | inhibited the effects of LPS on expression of all of the genes analysed | did not affect the phosphorylation levels | did not affect the phosphorylation levels | – | – | – | –
O=P(O)(OCC(O)CO)OC1C(O)C(O)C(O)C(O)C1O (stereo not drawn) [GroPIns, glycerophosphoinositol] | did not affect this LPS activity | inhibited the effects of LPS on expression of all of the genes analysed | did not affect the phosphorylation levels | did not affect the phosphorylation levels | very small effects | significantly reduced | very small effects | significantly reduced
